Data on three compounds can be found in patent US20230151003A1, “COMPOUNDS AND METHODS OF USE” (Exelixis, Inc., priority 2020, published 2023).

Format in all cases: biochemical
One assay addresses KDR (Homo sapiens, UniProt P35968). The experiment in a line: Human KDR kinase assay (HTRF KinEase). The arrangement: Human KDR (residues 790-1356; CarnaBio, 0.1 ng/ well); purchased CarnaBio. The following applies: Table 2 Biological Activities, ATP at Km (4.0 μM). As to the method: (§1) Kinase activity and compound inhibition were investigated using the HTRF® KinEase assay (Cisbio Cat #62TKOPEB) per manufacturer's instructions. In short, compounds were delivered in 300 nL volumes at 10 different concentrations in DMSO (3% final) to empty 384-well assay plates (Corning cat #3824). A mixture of enzyme, 1 μM biotynlated peptide substrate, and buffer in 10 μL volume was added. The assay was started upon the addition of ATP (at Km). The 10 μL reaction was incubated at room temperature. The reaction was stopped upon the addition of detection buffer containing streptavidin-XL665 (5 μL) and TK antibody-Eu3+ (5 μL). After a 60 min incubation at room temperature, the fluorescence at 665 nm and 620 nm was read on an Envision microplate reader (Perkin Elmer). Kinase activity normalized to DMSO (100% activity) and reference compound at 1 μM and (0% activity) was calculated using the fluorescence ratio […]. IC50 values were calculated by nonlinear regression analysis using a 4-parameter logistic curve fit in ActivityBase XE (IDBS).
Human KDR (residues 790-1356; CarnaBio, 0.1 ng/ well) was incubated with enzymatic buffer (Cisbio) supplemented with 5 mM MgCl2, 1 mM MnCl2, and 1 mM DTT. The mixture was added to the pre-plated compounds. The reaction was initiated upon addition of ATP at Km (4.0 μM). The reaction was incubated at room temperature for 40 min and stopped upon the addition of SA-XL665 and TK-antibody both diluted in EDTA-containing kinase detection buffer (Cisbio). The kinase activity was calculated as stated above and the IC50 values were reported.
A general note: Time-resolved FRET reads energy transfer from a long-lived donor to a nearby acceptor.

Another assay concerns the target T1, Human MER (Homo sapiens, UniProt Q12866).
T1 construct: Human MER (residues 528-999; CarnaBio, 1 ng/ well); purchased CarnaBio
T1 sequence (Q12866 528-999): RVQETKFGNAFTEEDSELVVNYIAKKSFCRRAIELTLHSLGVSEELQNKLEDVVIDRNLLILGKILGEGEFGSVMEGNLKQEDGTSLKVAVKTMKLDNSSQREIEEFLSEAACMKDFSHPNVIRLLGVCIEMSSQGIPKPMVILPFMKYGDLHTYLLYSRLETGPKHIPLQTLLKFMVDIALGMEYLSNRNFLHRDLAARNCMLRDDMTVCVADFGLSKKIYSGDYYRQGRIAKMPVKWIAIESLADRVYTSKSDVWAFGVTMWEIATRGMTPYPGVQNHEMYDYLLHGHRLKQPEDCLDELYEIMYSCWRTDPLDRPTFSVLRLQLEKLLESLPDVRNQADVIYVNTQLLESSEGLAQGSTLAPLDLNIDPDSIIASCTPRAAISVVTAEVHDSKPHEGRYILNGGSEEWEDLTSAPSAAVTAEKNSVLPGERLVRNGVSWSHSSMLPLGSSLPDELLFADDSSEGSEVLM
The assay is described as follows: Human MER kinase assay (HTRF KinEase). As to conditions: Table 2 Biological Activities, ATP at Km (40 μM). As for the experimental part:
as §1
Human MER (residues 528-999; CarnaBio, 1 ng/ well) was incubated with enzymatic buffer (Cisbio) supplemented with 5 mM MgCl2 and 1 mM DTT. The mixture was added to the pre-plated compounds. The reaction was initiated upon addition of ATP at Km (40 μM). The reaction was incubated at room temperature for 60 min and stopped upon the addition of SA-XL665 and TK-antibody both diluted in EDTA-containing kinase detection buffer (Cisbio). The kinase activity was calculated as stated above and the IC50 values were reported.

Another assay has as its target Met (Homo sapiens, UniProt P08581). The experiment in a line: Human MET kinase assay (HTRF KinEase). As to conditions: Table 2 Biological Activities, ATP at Km (3.0 μM), read-out: c-Met IC50. The arrangement: Human MET (residues 956-1390; CarnaBio, 0.1 ng/ well); purchased CarnaBio. As for the experimental part: as §1
Human MET (residues 956-1390; CarnaBio, 0.1 ng/ well) was incubated with enzymatic buffer (Cisbio) supplemented with 5 mM MgCl2, 1 mM DTT and 1 mM MnCl2. The mixture was added to the pre-plated compounds. The reaction was initiated upon addition of ATP at Km (3.0 μM). The reaction was incubated at room temperature for 40 min and stopped upon the addition of SA-XL665 and TK-antibody both diluted in EDTA-containing kinase detection buffer (Cisbio). The kinase activity was calculated as stated above and the IC50 values were reported.

Another assay has as its target T2, Human AXL (Homo sapiens, UniProt P30530).
T2 construct: Human AXL (residues 464-885; CarnaBio, 1 ng/ well); purchased CarnaBio
T2 sequence (P30530 464-885 isoform P30530-2): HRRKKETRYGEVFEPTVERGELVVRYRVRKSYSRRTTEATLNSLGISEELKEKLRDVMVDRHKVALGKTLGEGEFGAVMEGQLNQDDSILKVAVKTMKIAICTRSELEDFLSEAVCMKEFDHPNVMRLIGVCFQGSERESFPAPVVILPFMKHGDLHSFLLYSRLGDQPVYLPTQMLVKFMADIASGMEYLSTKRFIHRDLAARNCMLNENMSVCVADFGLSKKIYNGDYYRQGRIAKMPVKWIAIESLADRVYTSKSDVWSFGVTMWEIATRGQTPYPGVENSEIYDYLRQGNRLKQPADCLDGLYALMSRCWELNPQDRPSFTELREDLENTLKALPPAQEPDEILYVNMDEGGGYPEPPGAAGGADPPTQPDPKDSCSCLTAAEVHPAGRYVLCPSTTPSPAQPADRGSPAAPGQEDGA
The experiment in a line: Human AXL kinase assay (HTRF KinEase). The following applies: Table 2 Biological Activities, ATP at Km (1.0 μM). As for the experimental part: as §1
Human AXL (residues 464-885; CarnaBio, 1 ng/ well) was incubated with enzymatic buffer (Cisbio) supplemented with 5 mM MgCl2, 1 mM DTT, and Supplemental Enzymatic Buffer (SEB; Cisbio). The mixture was added to the pre-plated compounds. The reaction was initiated upon addition of ATP at Km (1.0 μM). The reaction was incubated at room temperature for 50 min and stopped upon the addition of SA-XL665 and TK-antibody both diluted in EDTA-containing kinase detection buffer (Cisbio). The kinase activity was calculated as stated above and the IC50 values were reported.

pIC50: −log10 of the molar value.

Chain of KDR (P35968 790-1356): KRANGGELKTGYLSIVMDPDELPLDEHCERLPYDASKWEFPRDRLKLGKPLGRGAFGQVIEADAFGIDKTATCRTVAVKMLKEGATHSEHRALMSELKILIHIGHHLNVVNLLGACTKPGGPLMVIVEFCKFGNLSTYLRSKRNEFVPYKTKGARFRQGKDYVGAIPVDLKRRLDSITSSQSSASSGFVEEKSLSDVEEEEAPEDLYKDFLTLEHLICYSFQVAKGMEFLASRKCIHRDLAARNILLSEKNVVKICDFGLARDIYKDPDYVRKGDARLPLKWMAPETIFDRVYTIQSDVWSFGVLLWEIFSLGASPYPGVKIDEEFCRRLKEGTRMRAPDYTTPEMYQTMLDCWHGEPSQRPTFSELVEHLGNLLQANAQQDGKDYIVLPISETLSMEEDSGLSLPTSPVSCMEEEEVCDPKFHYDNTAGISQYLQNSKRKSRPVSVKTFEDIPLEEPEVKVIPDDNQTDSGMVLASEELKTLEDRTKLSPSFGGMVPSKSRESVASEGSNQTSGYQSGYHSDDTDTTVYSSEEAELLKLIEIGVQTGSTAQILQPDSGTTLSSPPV
Chain of Met (P08581 956-1390): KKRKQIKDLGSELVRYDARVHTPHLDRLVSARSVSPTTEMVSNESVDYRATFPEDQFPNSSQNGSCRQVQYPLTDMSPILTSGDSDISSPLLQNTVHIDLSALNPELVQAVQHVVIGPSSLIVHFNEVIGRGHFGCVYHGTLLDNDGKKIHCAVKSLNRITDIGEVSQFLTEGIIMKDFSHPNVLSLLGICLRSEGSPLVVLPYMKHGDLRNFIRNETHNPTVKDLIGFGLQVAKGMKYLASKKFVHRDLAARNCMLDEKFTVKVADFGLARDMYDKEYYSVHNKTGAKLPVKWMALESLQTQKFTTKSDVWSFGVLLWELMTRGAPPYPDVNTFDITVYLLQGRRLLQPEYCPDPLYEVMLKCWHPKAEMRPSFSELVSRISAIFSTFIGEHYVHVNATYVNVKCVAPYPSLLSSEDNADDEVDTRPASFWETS

Regarding `COc1cnc2c(Oc3ccc(NC(=O)c4c(C)ncc(-c5ccccn5)c4O)cc3F)ccnc2c1` [Compound 70, N-[3-Fluoro-4-[(7-methoxy-1,5-naphthyridin-4-yl)oxy]phenyl]-4-hydroxy-2-methyl-5-pyridin-2-ylpyridine-3-carboxamide], the negative logarithm of the IC50 (pIC50) on KDR, against Human MER, on Met and at Human AXL was at least 7.00 each time.
Consider `COc1cc2nccc(Oc3ccc(NC(=O)c4cnc(C)c(-c5ccc(F)cn5)c4O)cc3F)c2nc1OC` [Compound 85, N-[4-[(6,7-Dimethoxy-1,5-naphthyridin-4-yl)oxy]-3-fluorophenyl]-5-(5-fluoropyridin-2-yl)-4-hydroxy-6-methylpyridine-3-carboxamide], for which the pIC50 on KDR, against Human MER, on Met and at Human AXL was at least 7.00 in each case.
As to `COc1cc2nccc(Oc3ccc(NC(=O)c4cn(C)c(C)c(-c5ccc(F)cn5)c4=O)cc3)c2nc1OC` [Compound 86, N-[4-[(6,7-Dimethoxy-1,5-naphthyridin-4-yl)oxy]phenyl]-5-(5-fluoropyridin-2-yl)-1,6-dimethyl-4-oxopyridine-3-carboxamide], the pIC50 on KDR was 6.00 to 6.52; against Human MER, at least 7.00; at Met it was at least 7.00; against Human AXL, at least 7.00.

Broadly, the pIC50 is the negative decadic logarithm of the IC50, by convention in mol/L.
